Publication PMC6693348 (Journal of medicinal chemistry, 2019)
Like-named read-outs stand apart in the source and are kept apart here.

Tests used:
[1] = reference standard; cited from earlier work
EGFR protein ECD = EGFR protein ECD (Homo sapiens, UniProt P00533); assay: Surface plasmon resonance with immobilized EGFR; assay type: binding; conditions: analyte 0–300 μM
[2] = tested on: epidermal growth factor receptor (EGFR); conditions: cited from earlier work

For `CN(C)c1ccc2nc3ccc(=[N+](C)C)cc-3sc2c1` [methylene blue], the “ΦF (fluorescence quantum yield)” value [1] is listed as 0.035.
In the case of “8-(3,5-Dimethoxyphenyl)-bis(3-p-isothio-cyanato phenyl)-BODIPY [BODIPY 10]”, the “specificity of binding to EGFR ECD (sensorgrams)” value (EGFR protein ECD) is reported as “nonspecific binding or weak binding”.
For cyclo(K(N3)larllt), the “affinity for EGFR” value [2] is given as “high affinity”.
In the case of LARLLT [D4], the “affinity for EGFR” value ([2]; both in vitro and in vivo) is listed as “high affinity”.
For YHWY-GYTPQNVI [GE11], the “affinity for EGFR” value ([2]; both in vitro and in vivo) is given as “high affinity”.
